A short description of data set [1]: Example 1: blood concentrations of P88 and P95 after iloperidone by CYP2D6 genotype, with and without inhibitor. The following applies: at Tmax of P88, without inhibitor. Also on record: unit not given here. It counts as in vivo, human. An excerpt:
The research leading to the present invention was designed to examine the effect of different doses of iloperidone relative to the effect of ziprasidone and quetiapine on QTc duration under carefully controlled conditions. To further evaluate the possible relationship between exposure to iloperidone and the comparators to QTc duration, reassessment after pharmacological inhibition of the principle metabolic pathways for each drug, under steady-state conditions, was also planned.
Blood samples for pharmacogenetic analysis were collected at screening. Two polymorphisms previously associated with poor metabolizing status were genotyped in the CYP2D6 locus, and 251 genotypes were collected. The individual genotypes were studied for detection of association between genotype class and concentrations of iloperidone and its metabolites P88 and P95. The functional effect of the polymorphisms was also evaluated by analyzing the effect of the addition of the CYP2D6 inhibitor paroxetine on the concentrations of the parent drug and its metabolites.
The addition of metabolic inhibitors in this study therefore allowed for an evaluation of the effect of increasing blood-concentration of iloperidone and/or its metabolites on QT duration. More specifically, this study allowed for an evaluation of the effect of iloperidone on QTc before and after the addition of the CYP2D6 inhibitor, paroxetine, as well as before and after the addition of the CYP3A4 inhibitor, ketoconazole.
128 individuals consented to the pharmacogenetic study. Blood samples were collected according to the pharmacogenetics protocol and after the consent of patients. The DNA was extracted from whole blood by Covance using the PUREGENE DNA isolation kit (D-50K).
The 128 individuals that participated were a good representation of the total sample of 165 individuals that participated in the trial. 22 of 29 total were from the iloperidone 8 mg bid group, 30 of 34 were from the iloperidone 12 mg bid group, 22 of 31 from the 24 mg qd group, 3 of 5 of the risperidone group, 28 of 33 of the ziprazidone group, and 23 of 33 of the quetiapine group.
The genotype effect of the two CYP2D6 polymorphisms on period 1 concentrations was evaluated using the following ANOVA model. Concentrations of iloperidone, P88, and P95 at Period 1, without inhibitor, at the time at which maximum blood concentration of the parent compound or metabolite was reached (Tmax) were used as the dependent variable, the genotypes of each polymorphism as classes and the treatment as a covariate. In order to adjust for treatment effects after the single dose of iloperidone, the 8 mg bid was coded as 8, the 12 mg bid as 12 and the 24 mg qd as 24.
The function of these polymorphisms on the degree of inhibition of the CYP2D6 enzyme was calculated from the ratio of concentrations of P88 and P95 in period 2, after the addition of the inhibitor of CYP2D6. The concentrations of iloperidone and/or its metabolites (e.g., P88 and P95) may be determined in period 1 and/or period 2 by any known or later-developed method or device, including titration.
In order to understand the functional significance of the two CYP2D6 polymorphisms on the activity of the enzyme, the association of the various genotypes with the relative concentrations of the metabolites P88 and P95 were examined. It is known that P88 is degraded by CYP2D6 and that CYP2D6 is involved in the synthesis of P95. The relative amounts of P88 and P95 would therefore be controlled by the activity of the CYP2D6 enzyme. The ratio of P88/P95 was calculated before inhibition in Period 1 and at the Tmax of the two metabolites, as well as the ratio of P88/P95 in Period 2 after the addition of the CYP2D6 inhibitor paroxetine. In individuals with the wild type enzyme the concentration of P88 is expected to increase in Period 2, while in the same period the concentration of P95 is expected to decline.

A short description of data set [2]: interaction study: addition of CYP2D6 inhibitor fluoxetine, AUC. The note with it: addition of CYP2D6 inhibitor fluoxetine along with iloperidone.
A short description of another data set: lipophilicity. The data set is classed as physicochemical. The note with it: compared to iloperidone.
The target in another data set is HERG channel (Homo sapiens, UniProt Q12809). As to the kind of experiment: affinity for the HERG channel. It counts as binding.
Sequence of HERG channel (Q12809 whole entry): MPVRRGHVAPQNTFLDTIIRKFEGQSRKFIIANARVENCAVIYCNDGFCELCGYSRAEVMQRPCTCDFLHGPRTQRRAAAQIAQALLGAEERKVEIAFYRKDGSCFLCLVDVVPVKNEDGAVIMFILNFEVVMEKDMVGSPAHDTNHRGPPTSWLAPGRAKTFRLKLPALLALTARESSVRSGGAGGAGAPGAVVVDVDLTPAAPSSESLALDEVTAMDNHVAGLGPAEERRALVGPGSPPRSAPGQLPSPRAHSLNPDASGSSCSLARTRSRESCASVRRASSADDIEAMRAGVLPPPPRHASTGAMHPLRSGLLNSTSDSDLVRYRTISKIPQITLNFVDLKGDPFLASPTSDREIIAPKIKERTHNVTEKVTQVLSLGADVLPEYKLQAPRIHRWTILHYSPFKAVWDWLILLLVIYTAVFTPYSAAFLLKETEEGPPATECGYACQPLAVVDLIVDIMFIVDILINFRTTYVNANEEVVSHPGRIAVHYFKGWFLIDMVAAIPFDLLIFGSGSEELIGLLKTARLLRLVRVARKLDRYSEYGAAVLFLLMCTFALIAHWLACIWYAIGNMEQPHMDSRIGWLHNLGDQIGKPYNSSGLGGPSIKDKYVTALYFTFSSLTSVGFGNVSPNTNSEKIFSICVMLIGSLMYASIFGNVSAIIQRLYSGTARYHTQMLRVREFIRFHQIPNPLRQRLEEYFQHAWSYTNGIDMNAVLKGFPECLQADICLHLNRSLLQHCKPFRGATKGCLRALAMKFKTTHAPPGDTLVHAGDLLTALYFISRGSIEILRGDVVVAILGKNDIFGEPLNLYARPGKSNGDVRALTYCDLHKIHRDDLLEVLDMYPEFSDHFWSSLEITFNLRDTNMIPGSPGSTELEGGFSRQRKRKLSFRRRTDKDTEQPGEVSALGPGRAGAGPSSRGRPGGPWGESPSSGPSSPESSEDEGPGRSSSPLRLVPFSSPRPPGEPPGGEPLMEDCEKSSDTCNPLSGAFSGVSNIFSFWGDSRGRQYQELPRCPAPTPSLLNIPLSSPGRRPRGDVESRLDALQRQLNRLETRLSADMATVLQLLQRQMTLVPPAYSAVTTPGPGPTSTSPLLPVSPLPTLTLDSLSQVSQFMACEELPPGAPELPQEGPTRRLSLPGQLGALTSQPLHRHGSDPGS

SMILES strings stand for the structures.

On to `COc1cc(C(C)O)ccc1OCCCN1CCC(c2noc3cc(F)ccc23)CC1` (stereo not drawn) [P88], for which the “P88 concentrations in Period 1, LSMeans” value in data set [1] (CYP2D6C100T CC) stood at 21.03; in data set [1] (CYP2D6C100T CT), 33.16; in data set [1] (CYP2D6C100T TT), 51.00; in data set [1] (CYP2D6G1846A AA) it was 62.70; in data set [1] (CYP2D6G1846A AG), 31.40; in data set [1] (CYP2D6G1846A GG) it was 21.03. Moreover, the “increase of the area under the curve (AUC)” value in data set [2] came out at 119%.

In the case of `COc1cc(C(=O)O)ccc1OCCCN1CCC(c2noc3cc(F)ccc23)CC1` [P95], the lipophilicity result in the data set “lipophilicity” is given as “less lipophilic”. For the same molecule, at HERG channel, the “affinity for the HERG channel” value is recorded as “very low affinity”.

For the origin of these results see patent US20140039008A1, “METHODS FOR THE ADMINISTRATION OF ILOPERIDONE” (VANDA PHARMACEUTICALS, INC., priority 2004, published 2014).
